Measured values: PubChem BioAssay AID330 (DTP/NCI, 2004)
“And” between values parts separate entries of the source, which are not always exact repeats. Equal values may be shown once. Toxic doses and inconclusive results are not listed. Bridge positions count the residues as written; N and C are the ends. Peptide text beside a SMILES is read from it. I, II: the chains in the order shown.

Tested on: P388 leukemia ip, CD2F1 mice, survival T/C
Test: NCI In Vivo Anticancer Drug Screen. Data for tumor model P388 Leukemia (intraperitoneal) in CD2F1 (CDF1) mice
Details: endpoint: median survival time, higher = longer survival
In short: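 Mice carrying the transplanted tumor received test compound or vehicle. Survival was recorded in each group, and the value is the treated-group measurement divided by that of the vehicle-treated control group.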

[1] = dose: 50.0 mg/kg/injection, schedule: Q01DX005 (ip), vehicle: saline with Tween-80
[2] = dose: 100.0 mg/kg/injection, schedule: Q01DX005 (ip), vehicle: saline with Tween-80
[3] = dose: 60.0 mg/kg/injection, schedule: Q01DX005 (ip), vehicle: saline with Tween-80
[4] = dose: 120.0 mg/kg/injection, schedule: Q01DX005 (ip), vehicle: saline with Tween-80
[5] = dose: 240.0 mg/kg/injection, schedule: Q01DX005 (ip), vehicle: saline with Tween-80
[6] = dose: 50.0 mg/kg/injection, schedule: Q01DX009 (ip), vehicle: saline
[7] = dose: 100.0 mg/kg/injection, schedule: Q01DX009 (ip), vehicle: saline
[8] = dose: 200.0 mg/kg/injection, schedule: Q01DX009 (ip), vehicle: saline
[9] = dose: 25.0 mg/kg/injection, schedule: Q01DX009 (ip), vehicle: saline with Tween-80
[10] = dose: 50.0 mg/kg/injection, schedule: Q01DX009 (ip), vehicle: saline with Tween-80
[11] = dose: 100.0 mg/kg/injection, schedule: Q01DX009 (ip), vehicle: saline with Tween-80
[12] = dose: 50.0 mg/kg/injection, schedule: Q01DX005 (ip), vehicle: Klucel (hydroxypropylcellulose) (HPC)
[13] = dose: 100.0 mg/kg/injection, schedule: Q01DX005 (ip), vehicle: Klucel (hydroxypropylcellulose) (HPC)
[14] = dose: 200.0 mg/kg/injection, schedule: Q01DX005 (ip), vehicle: Klucel (hydroxypropylcellulose) (HPC)

SMILES: CC(=O)N1C=Cc2ccccc2C1(Br)C1(Br)c2ccccc2C=CN1C(C)=O (centres undefined)
- T/C (dose: 25.0 mg/kg/injection, schedule: Q01DX005 (ip), vehicle: saline with Tween-80): 97 % of control
- T/C [1]: 99 % of control
- T/C [2]: 89 % of control

SMILES: C/C(=N/NC(=S)N1CC2CCC(CC2)C1)c1cnccn1
- T/C (dose: 6.25 mg/kg/injection, schedule: Q01DX005 (ip), vehicle: saline with Tween-80): 102 % of control
- T/C (dose: 12.5 mg/kg/injection, schedule: Q01DX005 (ip), vehicle: saline with Tween-80): 117 % of control

SMILES: N[C@@H](Cc1ccccc1)C(=O)NCCNC(=O)[C@@H](N)Cc1ccccc1
- T/C [3]: 103 % of control
- T/C [4]: 100 % of control
- T/C [5]: 104 % of control

SMILES: [NH-]CC(=O)O.[NH-]CC(=O)O.[NH-]CC(=O)O.[NH-]CC(=O)O.[Pt+4]
- T/C (dose: 12.5 mg/kg/injection, schedule: Q01DX009 (ip), vehicle: distilled water + Tween-80): 93 % of control
- T/C (dose: 25.0 mg/kg/injection, schedule: Q01DX009 (ip), vehicle: distilled water + Tween-80): 94 % of control
- T/C (dose: 50.0 mg/kg/injection, schedule: Q01DX009 (ip), vehicle: distilled water + Tween-80): 101 % of control
- T/C (dose: 100.0 mg/kg/injection, schedule: Q01DX009 (ip), vehicle: distilled water + Tween-80): 104 % of control
- T/C (dose: 200.0 mg/kg/injection, schedule: Q01DX009 (ip), vehicle: distilled water + Tween-80): 104 % of control

SMILES: O=C(O)CC12CCC(CC1)OC2=O
- T/C [6]: 100 % of control
- T/C [7]: 106 % of control
- T/C [8]: 97 % of control

SMILES: CCOC(=O)c1c(C#N)c2cnn(-c3ccccc3)c2n2cccc12
- T/C (dose: 15.0 mg/kg/injection, schedule: Q01DX005 (ip), vehicle: saline with Tween-80): 98 % of control
- T/C (dose: 30.0 mg/kg/injection, schedule: Q01DX005 (ip), vehicle: saline with Tween-80): 96 % of control
- T/C [3]: 86 % of control and 91 % of control

SMILES: CSCSCC(CO)NC(=O)C(Cl)Cl (centres undefined)
- T/C (dose: 50.0 mg/kg/injection, schedule: Q01DX009 (ip), vehicle: water): 102 % of control
- T/C (dose: 200.0 mg/kg/injection, schedule: Q01DX009 (ip), vehicle: water): 106 % of control
- T/C (dose: 400.0 mg/kg/injection, schedule: Q01DX009 (ip), vehicle: water): 113 % of control

SMILES: COC(=O)/C(C#N)=C(/SC)N(C)C
- T/C (dose: 12.5 mg/kg/injection, schedule: Q01DX009 (ip), vehicle: saline with Tween-80): 104 % of control
- T/C [9]: 104 % of control
- T/C [10]: 102 % of control and 109 % of control
- T/C [11]: 103 % of control

SMILES: CC1(C)OC2C(CO)OC(n3ncc(=S)[nH]c3=O)C2O1 (centres undefined)
- T/C (dose: 100.0 mg/kg/injection, schedule: Q04DX003 (ip), vehicle: saline with Tween-80): 102 % of control
- T/C (dose: 200.0 mg/kg/injection, schedule: Q04DX003 (ip), vehicle: saline with Tween-80): 86 % of control
- T/C (dose: 400.0 mg/kg/injection, schedule: Q04DX003 (ip), vehicle: saline with Tween-80): 97 % of control

SMILES: CC(OC1OC(C(=O)O)C(O)C(O)C1O)c1ccccc1 (centres undefined)
- T/C (dose: 200.0 mg/kg/injection, schedule: Q01DX009 (ip), vehicle: saline sonified): 100 % of control
- T/C (dose: 400.0 mg/kg/injection, schedule: Q01DX009 (ip), vehicle: saline sonified): 95 % of control

SMILES: CC(=O)N(C)C
- T/C (dose: 0.25 % in 0.5 ml injection vol, schedule: Q01DX009 (ip), vehicle: water): 102 % of control
- T/C (dose: 0.5 % in 0.5 ml injection vol, schedule: Q01DX009 (ip), vehicle: water): 100 % of control and 102 % of control
- T/C (dose: 1.0 % in 0.5 ml injection vol, schedule: Q01DX009 (ip), vehicle: water): 99 % of control and 102 % of control
- T/C (dose: 2.0 % in 0.5 ml injection vol, schedule: Q01DX009 (ip), vehicle: water): 100 % of control and 101 % of control
- T/C (dose: 8.0 % in 0.5 ml injection vol, schedule: Q01DX009 (ip), vehicle: water): 112 % of control and 113 % of control
- T/C (dose: 16.0 % in 0.5 ml injection vol, schedule: Q01DX009 (ip), vehicle: water): 108 % of control

SMILES: CCOC(=O)COc1ccc(C2=C(c3ccccc3)C(C)(C)Oc3cc(OC)ccc32)cc1[N+](=O)[O-]
- T/C [1]: 97 % of control
- T/C [2]: 93 % of control
- T/C (dose: 200.0 mg/kg/injection, schedule: Q01DX005 (ip), vehicle: saline with Tween-80): 86 % of control

SMILES: CC(NC(=O)C(N)CSSCC(N)C(=O)NC(C)C(=O)O)C(=O)O (stereo not drawn) (I: H-Cys-Ala-OH / II: H-Cys-Ala-OH; disulfide I:1-II:1; configuration not given here)
- T/C [12]: 100 % of control
- T/C [13]: 104 % of control
- T/C [14]: 110 % of control

SMILES: CCN(CC)CCOc1cccc2c1C(=O)c1c(O)cccc1C2=O
- T/C [9]: 103 % of control and 95 % of control
- T/C [10]: 105 % of control and 97 % of control
- T/C [11]: 158 % of control

SMILES: O=C1c2ccccc2-c2ccc(NC(=O)C34CC5CC(CC(C5)C3)C4)cc21
- T/C [12]: 86 % of control
- T/C [13]: 87 % of control
- T/C [14]: 90 % of control

SMILES: CCOC(=N)c1cn(C2OC(CO)C(O)C2O)c2ncnc(N)c12 (centres undefined)
- T/C (dose: 0.2 mg/kg/injection, schedule: Q01DX009 (ip), vehicle: saline): 161 % of control
- T/C (dose: 0.25 mg/kg/injection, schedule: Q01DX009 (ip), vehicle: saline): 150 % of control
- T/C (dose: 0.3 mg/kg/injection, schedule: Q01DX009 (ip), vehicle: saline): 157 % of control
- T/C (dose: 0.5 mg/kg/injection, schedule: Q01DX009 (ip), vehicle: saline): 159 % of control
- T/C (dose: 1.0 mg/kg/injection, schedule: Q01DX009 (ip), vehicle: saline): 118 % of control
- T/C (dose: 2.0 mg/kg/injection, schedule: Q01DX009 (ip), vehicle: saline): 90 % of control

SMILES: CC(C)C1(C(C)C)OCCO1
- T/C [6]: 100 % of control
- T/C [7]: 109 % of control
- T/C [8]: 109 % of control

SMILES: CN(c1ccccc1)S(=O)c1ccccc1 (centres undefined)
- T/C [9]: 94 % of control
- T/C [10]: 103 % of control
- T/C [11]: 110 % of control

SMILES: Cn1c(=S)[nH]c2sc3c(c2c1=O)CCC3
- T/C [3]: 96 % of control
- T/C [4]: 93 % of control
- T/C [5]: 89 % of control
